Measured values: patent publication US6365634B1, “Naturally occurring compounds and their derivatives as cyclooxygenase 2 and/or 5-lipoxygenase inhibitors” (C-P Technology Limited Partnership, priority 1997, dated 2002)

What was measured:
human keratinocytes = assay: Lactate dehydrogenase (LDH) release toxicity assay; type: cell-based; conditions: highest value of any culture treated with 5, 1.0, 0.2 or 0.04 uM
Procedure: To address the possibility that the inhibition of both PGE2 and LTB4 production by human keratinocytes treated with dehydroabietic acid methyl ester was […], a cell lactate dehydrogenase toxicity assay (Fisher Scientific) was performed. Briefly, lactate dehydrogenase (LDH) is found intracellularly and is released only in response to toxic stimuli and/or cell death. The amount of LDH released into the media of cultured cells is indicative of the degree of toxicity occurring in that culture. To do the assay, 48-well plates of cultured human keratinocytes (as described above for the PGE2 assay) were prepared and treated with the same concentrations of dehydroabietic acid methyl ester as described above for the PGE2 and LTB4 assays. One hour prior to harvesting culture media samples from wells treated with dehydroabietic acid methyl ester, duplicate wells were treated with a cell lysis buffer (Fisher Scientific) that caused 100% cell death to occur in the treated wells. After culture media samples were collected from all wells, the amount of LDH present in each was determined using a colorometric assay (Fisher Scientific). […] The amount of LDH released into the media of cultures treated with dehydroabietic acid methyl ester as well as vehicle-control media was determined using the colorometric assay and expressed as a percentage of that released by the 100% cell death wells.
To address the possibility that the inhibition of PGE2 production by human keratinocytes treated with 4-cumylphenol was due to toxicity, a cell lactate dehydrogenase toxicity assay (Fisher Scientific) was performed. […] After culture media samples were collected from all wells, the amount of LDH present in each was determined using a colorometric assay (Fisher Scientific). […] The amount of LDH released into the media of cultures treated with dehydroabietic acid methyl ester as well as vehicle-control media was determined using the colorometric assay and expressed as a percentage of that released by the 100% cell death wells. […]

[1] = molecular target: T1, rabbit reticulocyte 15-LO (Oryctolagus cuniculus, UniProt P12530); assay: 15-LO biochemical assay (15-HETE formation, TLC quantitation); conditions: for Percent Inhibition of 15-LO: negative = increased activity
T1 construct: 24.5 units of a rabbit reticulocyte 15-LO preparation; tissue Oxford Biochemicals; host or cells: rabbit reticulocytes
T1 sequence (P12530 1-663): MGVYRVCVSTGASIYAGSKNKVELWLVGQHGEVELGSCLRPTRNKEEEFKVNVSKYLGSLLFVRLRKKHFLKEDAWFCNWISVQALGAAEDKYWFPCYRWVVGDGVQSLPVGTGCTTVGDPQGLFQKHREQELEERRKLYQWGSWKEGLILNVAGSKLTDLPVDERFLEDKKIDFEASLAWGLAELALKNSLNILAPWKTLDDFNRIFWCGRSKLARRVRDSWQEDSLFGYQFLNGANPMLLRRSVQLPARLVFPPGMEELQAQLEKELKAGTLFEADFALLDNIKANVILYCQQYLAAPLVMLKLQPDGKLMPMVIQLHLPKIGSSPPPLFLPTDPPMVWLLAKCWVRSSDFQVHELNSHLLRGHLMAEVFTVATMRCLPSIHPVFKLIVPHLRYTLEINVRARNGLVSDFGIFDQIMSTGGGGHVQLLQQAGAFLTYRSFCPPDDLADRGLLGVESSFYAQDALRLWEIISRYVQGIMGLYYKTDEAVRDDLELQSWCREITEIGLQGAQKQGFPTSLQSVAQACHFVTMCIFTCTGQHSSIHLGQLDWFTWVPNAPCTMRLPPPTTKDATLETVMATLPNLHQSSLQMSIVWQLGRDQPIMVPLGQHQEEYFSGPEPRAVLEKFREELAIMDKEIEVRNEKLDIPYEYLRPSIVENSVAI
Procedure: The inhibitory activity of dehydroabietic acid methyl ester was assessed by performing biochemical assays that utilized 1) human recombinant COX II, 2) ovine COX I, and 3) rabbit reticulocyte 15-LO. In all biochemical assays dehydroabietic acid methyl ester and inhibitory control compounds were used at a final concentration of […]. The COX I and II biochemical assays have been previously described in this document (see COX I and II Assays Used to Test X-8 Fractions and Purified Compounds, Example 3). The 15-LO assay was done using a modified version of a previously reported method (Corey, E. J., Shih, C., and Cashman, J. R. (1983) Proc. Natl. Acad. Sci. v80, p3,581; Sigal, E., Grunberger, D., Cashman, J. R., Craik, C. S., Caughey, G. H., and Nadel, J. A. (1988) Biochem. Biophys. Res Comm. v150(1), p376). Briefly, 24.5 units of a rabbit reticulocyte 15-LO preparation (corresponding to 7 ug total protein)(Oxford Biochemicals) was placed in potassium phosphate buffer (10 mM, pH 6.0). Dehydroabietic acid methyl ester was added to give a final concentration of 250 uM. The reaction was initiated by the addition of ^3H-AA (50 uM final concentration) and maintained at 37° C., for 5 min. The reaction was stopped by the addition of ice-cold methanol containing NaCNBH3 (to reduce peroxides). A portion of each reaction solution was then separated via TLC (250 μm PK6F 60 Å silica gel preparative TLC plate, Whatman), co-spotted with AA and 15-HETE (a metabolic product of 15-LO) and developed in hexane/ether/acetic acid (50:50:1) to separate 15-HETE from AA (Rf=0.29 and 0.5, respectively). Bands on the TLC plates were then visualized by I2 and scraped for quantitation. As with the COX I and II assays, percent inhibition was calculated based on a comparison between incubations performed in the presence and absence of dehydroabietic acid methyl ester (see “Fractionation and Bioassay Analysis of Fractions Derived from Extract-8” above).

For `CC(C)(c1ccccc1)c1ccc(O)cc1` [4-Cumylphenol, 4-cumylphenol], the “percent toxicity (LDH released) versus the 100% cell death control” value (human keratinocytes) was no more than 12.7% and the “Percent Inhibition of 15-LO” value ([1]; pure 4-cumylphenol, concentration not given) was −40.0%.
In the case of `COC(=O)[C@]1(C)CCC[C@]2(C)c3ccc(C(C)C)cc3CC[C@@H]12` [Dehydroabietic acid methyl ester, dehydroabietic acid methyl ester], the “percent toxicity (LDH released) versus the 100% cell death control” value (human keratinocytes) is reported as no more than 12%, the “increase of the enzymatic activity of 15-LO” value ([1]; 250 uM) is reported as “over 93%” and the “Percent Inhibition of 15-LO” value ([1]; final concentration of 250 uM) is reported as −93.6%.
